Experimental data reported in US20110100079A1, “METHOD FOR IMPARTING STRESS TOLERANCE TO PLANT” (priority 2007, published 2011).

Tests used:
Format in all cases: in vivo
[1] = system: “Momotaro” tomato; test: Standard test: standard extent of imparting plant salt stress tolerance; details: 100 ppm sprayed onto leaves 10 ml/specimen, NaCl 3510 ppm in tap water, fresh weight after 2 weeks vs salt-stressed untreated control plot 1
Experimental: Standard Test (I) Plant Preparation A 50-cell tray is filled with potting soil (fertilizer components: N:P:K=0.4:1.9:0.6 (g)/kg potting soil); and seeds of a “Momotaro” tomato (Takii Co., Ltd.) are sowed, thinly covered with potting soil, and sufficiently irrigated to allow the seeds to sprout. When the leaves in the 2-leaf stage are fully unfolded, the soil on the tomato roots is washed away with running water, and a test is performed. For the potting soil, Kureha gardening soil manufactured by Kureha Corporation may be used. (II) Test Condition Setting The environmental conditions are controlled such that the temperature is 23° C., the relative humidity is 50%, the illuminance is 5000 Lux, and the daily light-dark cycle includes a 16-hour light period and an 8-hour dark period. Such environmental conditions can be obtained by, for example, controlling the temperature in a room or a climate chamber where the temperature and the relative humidity can be controlled, and controlling illuminance by a fluorescent light or the like. […] (III) Treatment with Plant Stress Tolerance Imparting Composition […] A known surfactant or a like material that barely affects the plant may be used in the preparation of an aqueous dispersion. Test plot: An aqueous solution or an aqueous dispersion of a test compound (sugar derivative-type surfactant) (concentration: 100 ppm) is sprayed onto the leaves in an amount of 10 ml per tomato specimen. […] NaCl is added to a solution culture medium (creating a salt stress), but no test compound (plant stress tolerance imparting composition) is given to the tomato. Control plot 2: No NaCl is added to a solution culture medium (creating no salt stress), and no test compound (plant stress tolerance imparting composition) is given to the tomato. (IV) Calculation of Standard Extent of Imparting Plant Salt Stress Tolerance (%) […] The plant stress level (standard plant salt stress level) attained in the above-described standard test is about 130%. In this regard, the standard plant salt stress level can be calculated according to Formula (ii)′ below.

[2] = system: “Momotaro” tomato; test: Example 3 drying stress tolerance imparting test (tomato); details: pF 2.3, leaf, 100 ppm once a week, 3 weeks
Experimental: Other cultivation conditions were as with the conditions of the drying stress test. Drying stress conditions: soil pF value: 2.3, 2.5, or 2.9, cultivation temperature: 23° C., relative humidity: 50%, illuminance: 5000 Lux (fluorescent light), light/dark cycle: 16 hours/8 hours (2) Cultivation period: 3 weeks (3) Soil: Kureha gardening soil manufactured by Kureha Corporation (fertilizer components: N:P:K=0.4:1.9:0.6 g/kg soil) (4) Plant preparation: A 50-cell tray was filled with Kureha gardening soil manufactured by Kureha Corporation (fertilizer components: N:P:K=0.4:1.9:0.6 g/kg soil), and seeds of a “Momotaro” tomato were sowed, thinly covered with Kureha gardening soil, and sufficiently watered to allow the seeds to sprout. When the leaves in the 2-leaf stage fully unfolded, the soil on the tomato roots was carefully washed away with running water, and a test was performed. (5) The chemicals used and the amount of a treatment solution applied were as in Example 1. (6) Amount of treatment solution applied: 10 ml/specimen for leaf spraying, 50 ml/specimen for fertigation Method of Drying Stress Tolerance Imparting Test Five tomato specimens as prepared above were planted in a 60-cm planter placed on a plant culture rack in an air-conditioned room. […] From immediately after planting the tomatoes, a treatment solution of Table 1 was sprayed onto the leaves or applied to the underground portions once a week. […] Five specimens (per planter) were prepared for each of the test plot and the control plots, plant bodies were collected 3 weeks after the beginning of the test such that the roots were not cut, the soil was washed away with running water, the fresh plant body-weights were measured, and a plant stress level and an extent of imparting plant stress tolerance were calculated according to Formula (ii) and (iii) above using the average of the weights.

[3] = system: Potato Variety: Toyoshiro; test: Example 5 drying stress tolerance imparting test (potato variety Toyoshiro); details: pF 2.3, leaf, 100 ppm once a week, 3 weeks
Experimental: Other cultivation conditions were the same as the conditions of the drying stress test. Drying stress conditions: soil pF value: 2.3, 2.5, or 2.9, cultivation temperature: 23° C., relative humidity: 50%, illuminance: 5000 Lux (fluorescent light), light/dark cycle: 16 hours/8 hours (2) Cultivation Period: 3 weeks (3) Soil: Kureha gardening soil manufactured by Kureha Corporation (fertilizer components: N:P:K=0.4:1.9:0.6 g/kg soil) (4) The chemicals used and the amount of a treatment solution applied were the same as in Example 3. Method of Drying Stress Tolerance Imparting Test A planter (60 cm) was filled with Kureha gardening soil manufactured by Kureha Corporation (fertilizer components: N:P:K=0.4:1.9:0.6 g/kg soil) in a glass greenhouse, tubers of a “Thyoshiro” potato were cut in half: and 5 pieces thereof were planted in the planter, thinly covered with Kureha gardening soil, and sufficiently watered to allow the tubers to sprout. When the leaves in the 3-leaf stage fully unfolded, the Solarium tuberosu was relocated on a plant culture rack in an air-conditioned room, and a test was initiated. […] From immediately after the beginning of the test, a treatment solution of Table 1 was sprayed onto the leaves or applied to the underground portions once a week. […] Five specimens (per planter) were prepared for each of the test plot and the control plots, plant bodies were collected 3 weeks after the beginning of the test such that the roots were not cut, the soil was washed away with running water, the fresh plant body weights were measured, and a plant stress level and an extent of imparting plant stress tolerance were calculated according to Formula (ii) and (iii) above using the average of the weights.

[4] = system: “Momotaro” tomato; test: Example 4 salt stress tolerance imparting test (tomato, tap water + NaCl); details: tap water + NaCl 3510 ppm, leaf, 100 ppm, 2 weeks
Description: NaCl concentration 3510 ppm (water potential by NaCl: […]) (4) Cultivation period: two weeks (5) Plant preparation: A 50-cell tray was filled with Kureha gardening soil manufactured by Kureha Corporation (fertilizer components: N:P:K=0.4:1.9:0.6 g/kg soil), and seeds of a “Momotaro” tomato were sowed, thinly covered with Kureha gardening soil, and sufficiently irrigated to allow the seeds to sprout. When the leaves in the 2-leaf stage fully unfolded, the soil on the tomato roots was carefully washed away with running water, and a test was performed. (6) The chemicals used and the concentration of a treatment solution were as in Example 1 (7) Amount of application: 10 ml/specimen for leaf spraying, 50 ml/specimen for fertigation Method of Salt Stress Tolerance Imparting Test […]

[5] = system: “Momotaro” tomato; test: Example 2 temperature stress tolerance imparting test (tomato); details: 32° C., leaf, 100 ppm, 2 weeks
Experimental: Other cultivation conditions were the same as the conditions of the temperature stress test. […] (2) Solution culture medium: […] Method of Temperature Stress Tolerance Imparting Test The temperature in a climatic chamber was controlled so as to be 10, 15, or 32° C. The environmental conditions were controlled so as to have an illuminance by a fluorescent light of 5000 Lux and a daily light-dark cycle of a 16-hour light period and a 8-hour dark period. In this test, a temperature of 23° C. at which the optimum growth was observed was regarded as a reference temperature (temperature stress-free test condition), and a stress was imposed by applying a temperature higher or lower than the reference temperature. A tomato as prepared above was planted in a 250 ml polyethylene bottle filled with the solution culture medium (½ Otsuka A formulation). A treatment solution as presented in Table 1 was sprayed onto the leaves or applied to the underground portion. […] Ten specimens were prepared for each of the test plot and the control plots, and a plant stress level and an extent of imparting plant stress tolerance were calculated according to Formula (ii) and (iii) above using as a fresh plant body weight the average of the fresh plant body weights of each specimen 2 weeks after the beginning of the test.

## Sucrose fatty acid ester (C18, HLB = 5) [Product of present invention 17]
[1]
  Standard extent of imparting plant salt stress tolerance: 113%
[2]
  Extent of imparting plant stress tolerance: 112%
[3]
  Extent of imparting plant stress tolerance: 114%
[4]
  Extent of imparting plant stress tolerance: 113%
[5]
  Extent of imparting plant stress tolerance: 111%
